From PubChem BioAssay (NCI)
Where “and” joins values, the source holds several entries; their conditions need not be identical. Identical values can stand only once.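 Method: 48-hour compound exposure of cells in 96-well plates, five concentrations, linear interpolation of endpoints. GI50 = concentration required for 50% inhibition of growth. At the TGI there is no net growth.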

Tests used:
Assay in all cases: NCI anticancer screen, dose series, 48 h
OVCAR-5 ovarian = test system: OVCAR-5 ovarian
HCC-2998 colon = test system: HCC-2998 colon
SNB-19 CNS = test system: SNB-19 CNS
NCI/ADR-RES ovarian = test system: NCI/ADR-RES ovarian
MALME-3M melanoma = test system: MALME-3M melanoma
SK-OV-3 ovarian = test system: SK-OV-3 ovarian
SF-268 CNS = test system: SF-268 CNS
K-562 leukemia = test system: K-562 leukemia
SW-620 colon = test system: SW-620 colon
OVCAR-8 ovarian = test system: OVCAR-8 ovarian

SMILES | GI50 (OVCAR-5 ovarian) [µM] | TGI (OVCAR-5 ovarian) [µM] | GI50 (HCC-2998 colon) [µM] | TGI (HCC-2998 colon) [µM] | GI50 (SNB-19 CNS) [µM] | TGI (SNB-19 CNS) [µM] | GI50 (NCI/ADR-RES ovarian) [µM] | TGI (NCI/ADR-RES ovarian) [µM] | GI50 (MALME-3M melanoma) [µM] | TGI (MALME-3M melanoma) | GI50 (SK-OV-3 ovarian) [µM] | TGI (SK-OV-3 ovarian) [µM] | GI50 (SF-268 CNS) [µM] | TGI (SF-268 CNS) [µM] | GI50 (K-562 leukemia) [µM] | TGI (K-562 leukemia) [µM] | GI50 (SW-620 colon) [µM] | TGI (SW-620 colon) [µM] | GI50 (OVCAR-8 ovarian) [µM] | TGI (OVCAR-8 ovarian) [µM]
O=C1NC(=O)/C(=C\c2ccccc2)C2=C1CCCC2 | 3.53 | 12 | 7.46 | 14 | 10.3 | 22.1 | 7.54 | 19.2 | 2.53 | 9.11 µM | 14.6 | 27.8 | 4.06 | 14.8 | 5.39 | > 40.3 | 2.37 | 6.94 | 9.92 | 41.1
O=C(O)CC(NC(=O)CP(=O)(O)O)C(=O)O (configuration not stated) | – | > 10000 | – | > 10000 | 72.6 | > 10000 | – | > 10000 | – | > 8470 µM | – | > 7930 | 95.8 | > 10000 | – | > 10000 | – | > 10000 | – | > 8110
NC(=O)c1cc(S(=O)(=O)Nc2nnc(-c3ccccc3)c(-c3ccccc3)n2)c(SCc2ccccc2)cc1Cl | > 100 | > 100 | > 100 | > 100 | > 100 | > 100 | > 100 | > 100 | > 100 | > 100 µM | > 74.7 | > 100 | > 87.5 | > 100 | 54.6 | > 100 | > 56.1 | > 100 | > 50.3 | > 77.5
Cn1cc(C2=C(c3cccc(Br)c3)C(=O)NC2=O)c2ccccc21 | > 25 | > 25 | > 16 | > 25 | > 25 | > 25 | 8.85 | > 25 | > 19.2 | > 25 µM | 10.3 | > 25 | 15.5 | > 25 | 8.65 | > 25 | 9.44 | > 25 | 12.6 | > 25
C#COc1cccc(Nc2c(C#N)cnc3ncc(NC(=O)CCl)cc23)c1 | > 62.5 | > 62.5 | > 62.5 | > 62.5 | 32.1 | > 62.5 | > 62.5 | > 62.5 | 55.4 | > 62.5 µM | > 62.5 | > 62.5 | 20.6 | > 62.5 | 25.9 | > 62.5 | 19.8 | > 62.5 | 46 | > 62.5
COc1ccc(-n2c(C)cc(-c3ccccc3)c2C)cc1 | 2.48 | 14.6 | 3.04 | 11.4 | 8.41 | > 100 | 3.33 | 21.5 | 1.78 | 4.53 µM | 6.83 | 68.6 | 4.46 | 33.3 | 1.4 | > 100 | 2.14 | 12.5 | 3.51 | 38
COc1cc(OC)c(/C=C/c2c3ccccc3cc[n+]2C)c(OC)c1 | 3.04 | > 49 | 1.65 | 14.7 | 1.88 | 25 | > 85.5 | > 100 | 2.32 | 15.4 µM | 3.58 | > 100 | 2.54 | 19.3 | 0.863 | > 100 | 2.12 | 14.2 | 2.27 | 12.4
c1ccc2c(c1)c1c(c3ccccc32)CN2CCCC2C1 (configuration not stated) | – | > 43.4 | – | 17.1 | – | > 22.5 | – | > 41.5 | – | 7.14 µM | – | > 100 | – | 13.2 | – | > 100 | – | 16.7 | – | 14.5
COc1ccc(O)c(C(=O)c2ccc(C(=O)N[C@H]3CCCNC[C@@H]3NC(=O)c3ccncc3)cc2)c1F | > 25 | > 25 | 9.74 | > 25 | 10.4 | > 25 | > 25 | > 25 | 1.47 | > 25 µM | 5.57 | > 25 | 1.75 | > 20.6 | 7.78 | > 25 | > 25 | > 25 | 5.5 | > 21.3
CCn1c(=O)c2c(=O)c3c4c(oc3oc2c2ccccc21)C(=O)c1ccccc1C4=O | > 100 | > 100 | > 100 | > 100 | > 57.7 | > 100 | 13.8 | > 100 | > 100 | > 100 µM | > 100 | > 100 | > 71 | > 100 | 1.73 | > 100 | > 100 | > 100 | 3.3 | > 100
CC(C)(S)C(N)C(=O)O (configuration not stated) | > 5000 | > 5000 | 1450 | 4340 | 3370 | > 5000 | 3650 | > 5000 | 1130 | 3400 µM and > 100 µM | 2600 | > 5000 | 1740 | > 5000 | 2390 | > 5000 | 2220 | > 5000 | 3450 | > 5000
O=C(Nc1ccc(-n2ccc3c(NC(=O)c4ccccc4)nccc32)cc1)Nc1ccc(Cl)c(Cl)c1 | 3.52 | 32.9 | 1.47 | 3.65 | 1.13 | 4.4 | 1.31 | 4.52 | 1.7 | 3.78 µM | 1.2 | 3.29 | 1.26 | 5.97 | 0.736 | > 100 | 1.08 | 2.51 | 1.26 | 3.7
CCCCCOc1ccc(/C=N/Nc2cc(C)nc3ccc(Br)cc23)cc1 | 1.83 | 3.28 | 2.07 | 3.8 | 1.96 | 3.71 | 1.83 | 4.19 | 1.88 | 3.46 µM | 1.75 | 3.18 | 1.97 | 3.73 | 1.24 | 2.83 | 1.92 | 3.63 | 2.13 | 4.73
CCCOc1ccc2sc(NC(=O)OC)nc2c1 | > 100 | > 100 | 24.5 | > 100 | 10.2 | > 100 | 0.793 | > 47.5 | 3.81 | > 100 µM | 4.36 | > 100 | > 100 | > 100 | 0.419 | > 100 | 0.544 | > 100 | 5 | > 100
OCc1ccn2c1[C@@H](O)CC2 | – | > 100 | – | > 100 | – | > 100 | – | > 100 | – | > 100 µM | – | > 100 | – | > 100 | – | > 100 | – | > 100 | – | > 100
N#CC1=C(N)Oc2cc(O)ccc2C1c1cccc2ccccc12 (configuration not stated) | 14.6 | 28.8 | 3 | 13.9 | 16.3 | 37.3 | 3.98 | 22.8 | 25.8 | > 100 µM | 18.1 | 42.9 | 14.5 | 40.4 | 3.68 | 17 | 3.95 | > 100 | 23.7 | 66.1
Cc1nc(-[n+]2nc(-c3ccncc3)nn2-c2ccccc2)sc1C | – | > 100 | – | > 100 | – | > 100 | – | > 100 | – | > 100 µM | – | 67.5 | – | > 100 | – | > 100 | – | > 100 | – | > 100
Cc1cc(C)c(/C=C2\C(=O)Nc3ccc(NC(=O)CCCCCCC(=O)NO)cc32)[nH]1 | 1.09 | > 54.1 | 5.68 | > 100 | 0.93 | > 100 | > 100 | > 100 | 0.237 | > 27.4 µM | 0.664 | 4.56 | 1.62 | > 100 | 0.373 | > 100 | 0.317 | 36.2 | 0.638 | > 100
